# Results published in publication PMC9570109, “Improved Trimethylangelicin Analogs for Cystic Fibrosis: Design, Synthesis and Preliminary Screening” (International Journal of Molecular Sciences, 2022).
# Key:
# [1] = test system: Salmonella typhimurium 1535; experiment: Ames mutagenicity assay, plate incorporation, TA1535; format: cell-based
# Protocol: (§1) The mutagenicity assay was performed for the test compounds following the plate incorporation method with the histidine-requiring Salmonella typhimurium mutant TA97A, TA98, TA100, and TA1535 strains purchased by Molecular Toxicology Inc. (Boone, NC, USA; moltox.com). All strains (100 µL per plate of fresh overnight cultures) were checked with and without the addition of 0.5 mL of a 5% S9 exogenous metabolic activator (S9 mix). The lyophilized post-mitochondrial supernatant S9 mix (Aroclor 1254-induced, Sprague–Dawley male rat liver in 0.154 M KCl solution), commonly used for the activation of pro-mutagens in mutagenic metabolites (Molecular Toxicology, Inc., Boone, NC, USA), was stored at −80 °C before use. The concentration tested for all the samples were 5, 10, 20, 50, and 100 µL/plate from a stock solution of 500 nM. A fully grown culture of the appropriate tester strain (0.1 mL) was added to 2 mL molten top agar (0.6% agar, 0.6% NaCl, 0.5 mM L-histidine/biotin solution) at 46 °C, together with 0.1 mL of each sample solution at different concentrations, and 0.5 mL S9 mix for assays with metabolic activation. The ingredients were thoroughly mixed and poured onto minimal glucose agar plates (1.5% agar in 2% Vogel–Bonner medium E with 5% glucose solution). DMSO was used as negative a control (100 µL/plate). Positive controls were prepared as follows: 2-aminoanthracene (2 µg/plate) and 2-nitrofluorene (2 µg/plate) for TA 97A, TA98 and TA1535 with and without metabolic activator (S9 mix), respectively; 2-aminoanthracene (2 µg/plate) and sodium azide (2 µg/plate) for TA100, with and without metabolic activator (S9 mix), respectively. The plates were incubated at 37 °C for 72 h and then his+ revertants were checked and counted using a Colony Counter 560 Suntex (Antibioticos, Italy). A sample was considered mutagenic when the observed number of colonies was at least twofold over the spontaneous level of revertants. All determinations were made in triplicate. Statistical analysis: relative standard deviations were calculated using the statistical software STATISTICA 6.0 (StatSoft, Italia srl, Vigonza, Italy). […]
# (§2) Salmonella typhimurium TA97A Salmonella typhimurium TA98 Salmonella typhimurium TA100 Salmonella typhimurium 1535 […]
# (§3) average SD t/c average SD t/c average SD t/c average SD t/c average SD t/c average SD t/c average SD t/c average SD t/c […]
# (§4) *Significant values according to Ames computation (Maron & Ames, 1983); DMSO, C+: negative and positive controls respectively; SD: Standard Deviation; t/c: number of revertant colonies in treated plates/number of revertant colonies in […]
# [2] = test system: Salmonella typhimurium TA98; experiment: Ames mutagenicity assay, plate incorporation, TA98; format: cell-based
# Protocol: as §1, §2, §3, §4
# [3] = test system: Salmonella typhimurium TA97A; experiment: Ames mutagenicity assay, plate incorporation, TA97A; format: cell-based
# Protocol: as §1, §2, §3, §4
# [4] = test system: salmon testes DNA; experiment: Photoadduct formation with DNA under UVA irradiation (TLC analysis); conditions: 15 J/cm2 UVA
# Outline: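 Compound in ethanol (2 mg/mL) added to salmon testes DNA in 10 mM NaCl/1 mM EDTA and irradiated with 15 J/cm2 UVA (about 8 mW/cm^2) for 1 h at room temperature. DNA then precipitated, acid-hydrolysed at 100 °C for 1 h, chloroform-extracted, and photoadducts resolved by TLC (EtOAc/EtOH 9:1).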
# [5] = 1535, +S9, 5 µL/plate of 500 nM stock
# [6] = 1535, +S9, 10 µL/plate of 500 nM stock
# [7] = 1535, +S9, 20 µL/plate of 500 nM stock
# [8] = 1535, +S9, 50 µL/plate of 500 nM stock
# [9] = 1535, +S9, 100 µL/plate of 500 nM stock
# [10] = 1535, -S9, 5 µL/plate of 500 nM stock
# [11] = 1535, -S9, 10 µL/plate of 500 nM stock
# [12] = 1535, -S9, 20 µL/plate of 500 nM stock
# [13] = 1535, -S9, 50 µL/plate of 500 nM stock
# [14] = 1535, -S9, 100 µL/plate of 500 nM stock
# [15] = TA98, +S9, 5 µL/plate of 500 nM stock
# [16] = TA98, +S9, 10 µL/plate of 500 nM stock
# [17] = TA98, +S9, 20 µL/plate of 500 nM stock
# [18] = TA98, +S9, 50 µL/plate of 500 nM stock
# [19] = TA98, +S9, 100 µL/plate of 500 nM stock
# [20] = TA98, -S9, 5 µL/plate of 500 nM stock
# [21] = TA98, -S9, 10 µL/plate of 500 nM stock
# [22] = TA98, -S9, 20 µL/plate of 500 nM stock
# [23] = TA98, -S9, 50 µL/plate of 500 nM stock
# [24] = TA98, -S9, 100 µL/plate of 500 nM stock
# [25] = +S9, 5 µL/plate of 500 nM stock
# [26] = +S9, 10 µL/plate of 500 nM stock
# [27] = +S9, 20 µL/plate of 500 nM stock
# [28] = +S9, 50 µL/plate of 500 nM stock
# [29] = +S9, 100 µL/plate of 500 nM stock
# [30] = -S9, 5 µL/plate of 500 nM stock
# [31] = -S9, 10 µL/plate of 500 nM stock
# [32] = -S9, 20 µL/plate of 500 nM stock
# [33] = -S9, 50 µL/plate of 500 nM stock
# [34] = -S9, 100 µL/plate of 500 nM stock
compound,measurement,setting,value
Cc1cc(=O)oc2c1cc(-c1ccc(N)cc1)c1occ(C)c12 [pANDMA],"revertant colonies, average",[1]; [5],14.5
same,t/c (revertant colonies treated/untreated plates),[1]; [5],1.4
same,"revertant colonies, average",[1]; [6],17.0
same,t/c (revertant colonies treated/untreated plates),[1]; [6],1.6
same,"revertant colonies, average",[1]; [7],12.0
same,t/c (revertant colonies treated/untreated plates),[1]; [7],1.1
same,"revertant colonies, average",[1]; [8],13.0
same,t/c (revertant colonies treated/untreated plates),[1]; [8],1.2
same,"revertant colonies, average",[1]; [9],14.0
same,t/c (revertant colonies treated/untreated plates),[1]; [9],1.3
same,"revertant colonies, average",[1]; [10],17.5
same,t/c (revertant colonies treated/untreated plates),[1]; [10],1.6
same,"revertant colonies, average",[1]; [11],13.0
same,t/c (revertant colonies treated/untreated plates),[1]; [11],1.2
same,"revertant colonies, average",[1]; [12],5.5
same,t/c (revertant colonies treated/untreated plates),[1]; [12],0.5
same,"revertant colonies, average",[1]; [13],9.5
same,t/c (revertant colonies treated/untreated plates),[1]; [13],0.9
same,"revertant colonies, average",[1]; [14],10.0
same,t/c (revertant colonies treated/untreated plates),[1]; [14],0.9
same,"revertant colonies, average",[2]; [15],50.0
same,t/c (revertant colonies treated/untreated plates),[2]; [15],1.1
same,"revertant colonies, average",[2]; [16],48.0
same,t/c (revertant colonies treated/untreated plates),[2]; [16],1.0
same,"revertant colonies, average",[2]; [17],49.5
same,t/c (revertant colonies treated/untreated plates),[2]; [17],1.1
same,"revertant colonies, average",[2]; [18],51.0
same,t/c (revertant colonies treated/untreated plates),[2]; [18],1.1
same,"revertant colonies, average",[2]; [19],45.5
same,t/c (revertant colonies treated/untreated plates),[2]; [19],1.0
same,"revertant colonies, average",[2]; [20],40.5
same,t/c (revertant colonies treated/untreated plates),[2]; [20],1.0
same,"revertant colonies, average",[2]; [21],40.5
same,t/c (revertant colonies treated/untreated plates),[2]; [21],1.0
same,"revertant colonies, average",[2]; [22],43.5
same,t/c (revertant colonies treated/untreated plates),[2]; [22],1.1
same,"revertant colonies, average",[2]; [23],41.0
same,t/c (revertant colonies treated/untreated plates),[2]; [23],1.1
same,"revertant colonies, average",[2]; [24],39.0
same,t/c (revertant colonies treated/untreated plates),[2]; [24],1.0
same,"revertant colonies, average",[3]; [25],88.5
same,t/c (revertant colonies treated/untreated plates),[3]; [25],0.8
same,"revertant colonies, average",[3]; [26],100.5
same,t/c (revertant colonies treated/untreated plates),[3]; [26],0.9
same,"revertant colonies, average",[3]; [27],92.5
same,t/c (revertant colonies treated/untreated plates),[3]; [27],0.8
same,"revertant colonies, average",[3]; [28],104.5
same,t/c (revertant colonies treated/untreated plates),[3]; [28],1.0
same,"revertant colonies, average",[3]; [29],101.0
same,t/c (revertant colonies treated/untreated plates),[3]; [29],0.9
same,"revertant colonies, average",[3]; [30],82.5
same,t/c (revertant colonies treated/untreated plates),[3]; [30],1.1
same,"revertant colonies, average",[3]; [31],80.5
same,t/c (revertant colonies treated/untreated plates),[3]; [31],1.0
same,"revertant colonies, average",[3]; [32],82.0
same,t/c (revertant colonies treated/untreated plates),[3]; [32],1.1
same,"revertant colonies, average",[3]; [33],86.5
same,t/c (revertant colonies treated/untreated plates),[3]; [33],1.1
same,"revertant colonies, average",[3]; [34],86.0
same,t/c (revertant colonies treated/untreated plates),[3]; [34],1.1
same,photoadduct formation with DNA upon UVA irradiation,[4],only the unchanged bands
